The values that follow are results of earlier work, collected in US20160289773A1 (priority 2013, published 2016).

Several values for one entry are separate records, joined by “and”; a condition that tells them apart may be missing. Equal values may be shown once.

Series [1] relates to Haemonchus contortus. The note with it: in vivo.
Series [2] deals with Haemonchus contortus. The note with it: Zaire isolate.

In the case of `c1ccc([C@H]2CN3CCSC3=N2)cc1` [Levamisole, levamisole], the Levamisole efficacy with Haemonchus contortus [1] is 100% and > 99%. Further, in the series on Haemonchus contortus [2], the “levamisole susceptibility status of isolate” value is on record as “susceptible”.
